Assay results from patent US20100144733A1, “Compounds, compositions and methods comprising heteroaromatic derivatives” (Institute for OneWorld Health, priority 2008, published 2010).
Read-outs that look alike come from different tables or passages of the source.

How the values were obtained:
CHO-CFTR cell line = target: T1, CHO-CFTR cell line (Homo sapiens, UniProt P13569); assay: CHO-CFTR assay (FLIPR assay, same conditions as the T84 assay); type: cell-based; settings: imidazole and triazole-containing compounds
T1 construct: expressed in transfected cells; host or cells: CHO (CHO-CFTR cell line)

CFTR = target: T2, CFTR (Homo sapiens, UniProt P13569); assay: T84 assay (FLIPR membrane potential dye, forskolin/IBMX-stimulated CFTR channel activity); type: cell-based
T2 construct: endogenous in cells; host or cells: T84 human colonic cells (ECACC)
In short: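 Fluorescence from a membrane potential dye in T84 monolayers (HBSS with 10 mM Hepes) is followed each second for 150 s. Cells are exposed to test compound during the 45 min dye loading, then challenged with forskolin (10 μM) and IBMX (100 μM) to open CFTR. Inhibitors suppress the depolarization-driven fluorescence increase.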

[1] = imidazole and triazole-containing compounds (Tables 13, 14, 14′), read-out: IC50 (μM) (T84 assay)
[2] = oxadiazole-containing compounds (a series), average of at least 2 runs unless annotated n = 1, read-out: IC50

T1 sequence (P13569 whole entry): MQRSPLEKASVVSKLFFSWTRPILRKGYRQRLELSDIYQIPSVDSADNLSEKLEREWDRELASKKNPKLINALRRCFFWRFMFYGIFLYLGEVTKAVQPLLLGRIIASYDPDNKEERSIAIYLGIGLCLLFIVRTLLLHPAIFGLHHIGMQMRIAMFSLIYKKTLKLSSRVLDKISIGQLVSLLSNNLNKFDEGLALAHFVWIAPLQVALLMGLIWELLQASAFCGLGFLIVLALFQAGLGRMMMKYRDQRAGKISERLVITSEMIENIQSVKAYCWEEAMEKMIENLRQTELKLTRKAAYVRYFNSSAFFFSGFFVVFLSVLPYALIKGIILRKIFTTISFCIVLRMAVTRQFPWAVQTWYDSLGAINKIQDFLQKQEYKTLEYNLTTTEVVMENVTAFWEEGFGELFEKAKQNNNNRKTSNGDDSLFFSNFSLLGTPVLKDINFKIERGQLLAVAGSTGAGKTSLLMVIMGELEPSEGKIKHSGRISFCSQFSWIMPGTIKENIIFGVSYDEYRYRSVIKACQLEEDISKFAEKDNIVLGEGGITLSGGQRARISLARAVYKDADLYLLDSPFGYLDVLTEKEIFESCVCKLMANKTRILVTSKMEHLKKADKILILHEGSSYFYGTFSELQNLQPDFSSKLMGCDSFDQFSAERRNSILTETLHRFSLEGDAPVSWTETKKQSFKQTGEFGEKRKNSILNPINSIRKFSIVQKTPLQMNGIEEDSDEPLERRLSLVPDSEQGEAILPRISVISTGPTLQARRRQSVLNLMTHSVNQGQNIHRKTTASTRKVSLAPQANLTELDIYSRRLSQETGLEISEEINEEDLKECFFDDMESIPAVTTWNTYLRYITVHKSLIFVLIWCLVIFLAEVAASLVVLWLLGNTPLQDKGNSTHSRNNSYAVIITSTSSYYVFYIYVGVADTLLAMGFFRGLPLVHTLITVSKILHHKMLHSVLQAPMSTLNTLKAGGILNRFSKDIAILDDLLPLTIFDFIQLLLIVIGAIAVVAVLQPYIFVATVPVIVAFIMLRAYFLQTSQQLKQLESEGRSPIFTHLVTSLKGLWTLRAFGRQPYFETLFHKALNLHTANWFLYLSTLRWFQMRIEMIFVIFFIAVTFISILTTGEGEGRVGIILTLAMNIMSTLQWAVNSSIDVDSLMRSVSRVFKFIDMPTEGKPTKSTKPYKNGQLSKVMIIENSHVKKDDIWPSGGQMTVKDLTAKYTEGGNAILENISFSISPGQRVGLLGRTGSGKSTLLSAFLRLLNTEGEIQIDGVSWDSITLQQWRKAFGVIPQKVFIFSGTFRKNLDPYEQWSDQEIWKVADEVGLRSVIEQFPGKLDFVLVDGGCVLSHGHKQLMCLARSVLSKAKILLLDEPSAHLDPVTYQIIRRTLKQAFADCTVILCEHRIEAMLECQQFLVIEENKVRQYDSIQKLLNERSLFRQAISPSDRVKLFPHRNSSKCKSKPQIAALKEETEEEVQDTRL
T2 sequence (P13569 whole entry): as above

SMILES	IC50 (CHO-CFTR cell line)	IC50 (CFTR; [1])	IC50 (CFTR; [2])
CN(Cc1ccc(C(C)(C)C)cc1)C(=O)c1ncn(-c2cc(Cl)c(O)c(Cl)c2)n1 [1i, N-(4-tert-butylbenzyl)-1-(3,5-dichloro-4-hydroxyphenyl)-N-methyl-1H-1,2,4-triazole-3-carboxamide]	5.38 µM	4.26 µM	–
O=C(NC(c1ccccc1)c1ccccc1)c1ncn(-c2cc(Cl)c(O)c(Cl)c2)n1 [2i, N-benzhydryl-1-(3,5-dichloro-4-hydroxyphenyl)-1H-1,2,4-triazole-3-carboxamide]	6.45 µM	4.88 µM	–
O=C(NCc1cccc(OC(F)(F)F)c1)c1ncn(-c2cc(Cl)c(O)c(Cl)c2)n1 [3i, 1-(3,5-dichloro-4-hydroxyphenyl)-N-(3-(trifluoromethoxy)benzyl)-1H-1,2,4-triazole-3-carboxamide]	3.37 µM	7.14 µM	–
O=C(c1ncn(-c2cc(Cl)c(O)c(Cl)c2)n1)N1CCN(c2cccc(C(F)(F)F)c2)CC1 [4i, (1-(3,5-dichloro-4-hydroxyphenyl)-1H-1,2,4-triazol-3-yl)(4(3-(trifluoromethyl)phenyl)piperazin-1-yl)methanone]	14.3 µM	8.15 µM	–
O=C(c1cn(-c2cc(Br)c(O)c(Br)c2)cn1)N1CCC(Cc2ccccc2)CC1 [19i, (4-benzylpiperidin-1-yl)(1-(3,5-dibromo-4-hydroxyphenyl)-1H-imidazol-4-yl)methanone]	7.5 µM	17.4 µM	–
O=C(NCc1cccc(OC(F)(F)F)c1)c1cn(-c2cc(Br)c(O)c(Br)c2)cn1 [20i, 1-(3,5-Dibromo-4-hydroxyphenyl)-N-(3-(trifluoromethoxy)benzyl)-1H-imidazole-4-carboxamide]	2.31 µM	17.6 µM	–
O=C(NCc1ccc(F)c(Cl)c1)c1ncn(-c2cc(Cl)c(O)c(Cl)c2)n1 [23i, N-(3-chloro-4-fluorobenzyl)-1-(3,5-dichloro-4-hydroxyphenyl)-1H-1,2,4-triazole-3-carboxamide]	12.5 µM	7.39 µM	–
O=C(NCc1cc(F)cc(C(F)(F)F)c1)c1ncn(-c2cc(Cl)c(O)c(Cl)c2)n1 [24i, 1-(3,5-dichloro-4-hydroxyphenyl)-N-(3-fluoro-5-(trifluoromethyl)benzyl)-1H-1,2,4-triazole-3-carboxamide]	15.2 µM	4.93 µM	–
O=C(NCCC(c1ccccc1)c1ccccc1)c1ncn(-c2cc(Cl)c(O)c(Cl)c2)n1 [31i, 1-(3,5-dichloro-4-hydroxyphenyl)-N-(3,3-diphenylpropyl)-1H-1,2,4-triazole-3-carboxamide]	12.9 µM	1.67 µM	–
O=C(NC(c1ccccc1)c1ccc(Cl)cc1)c1ncn(-c2cc(Cl)c(O)c(Cl)c2)n1 (stereo not drawn) [33i, N-((4-chlorophenyl)(phenyl)methyl)-1-(3,5-dichloro-4-hydroxyphenyl)-1H-1,2,4-triazole-3-carboxamide]	4.8 µM	3.66 µM	–
CC(C)(C)c1ccc(CNC(=O)c2ncn(-c3cc(Cl)c(O)c(Cl)c3)n2)cc1 [34i, N-(4-tert-butylbenzyl)-1-(3,5-dichloro-4-hydroxyphenyl)-1H-1,2,4-triazole-3-carboxamide]	4.72 µM	1.18 µM	–
O=C(NCc1cc(Cl)cc(Cl)c1)c1ncn(-c2cc(Cl)c(O)c(Cl)c2)n1 [36i, 1-(3,5-dichloro-4-hydroxyphenyl)-N-(3,5-dichlorobenzyl)-1H-1,2,4-triazole-3-carboxamide]	13.7 µM	3.7 µM	–
CC(C)(C)ONC(=O)COc1c(Br)cc(-c2noc(C(=O)N3CCC(Cc4ccccc4)CC3)n2)cc1Br [205a, 2-(4-(5-(4-benzylpiperidine-1-carbonyl)-1,2,4-oxadiazol-3-yl)-2,6-dibromophenoxy)-N-tert-butoxyacetamide]	–	–	23.1 µM

Next, values leading:

IC50 (CHO-CFTR cell line)	IC50 (CFTR; [1])	IC50 (CFTR; [2])	SMILES
5.71 µM	2.67 µM	–	O=C(NCc1ccc(Cl)c(Cl)c1)c1ncn(-c2cc(Cl)c(O)c(Cl)c2)n1 [37i, 1-(3,5-dichloro-4-hydroxyphenyl)-N-(3,4-dichlorobenzyl)-1H-1,2,4-triazole-3-carboxamide]
28.6 µM	2.86 µM	–	O=C(NCc1cc(C(F)(F)F)ccc1F)c1ncn(-c2cc(Cl)c(O)c(Cl)c2)n1 [40i, 1-(3,5-dichloro-4-hydroxyphenyl)-N-(2-fluoro-5-(trifluoromethyl)benzyl)-1H-1,2,4-triazole-3-carboxamide]
23.2 µM	2.8 µM	–	O=C(NCC(c1ccccc1)c1ccccc1)c1ncn(-c2cc(Cl)c(O)c(Cl)c2)n1 [44i, 1-(3,5-dichloro-4-hydroxyphenyl)-N-(2,2-diphenylethyl)-1H-1,2,4-triazole-3-carboxamide]
0.45 µM	1.57 µM	–	O=C(NCc1ccc(Oc2ccccc2)cc1)c1ncn(-c2cc(Cl)c(O)c(Cl)c2)n1 [49i, 1-(3,5-dichloro-4-hydroxyphenyl)-N-(4-phenoxybenzyl)-1H-1,2,4-triazole-3-carboxamide]
8.76 µM	–	–	O=C(NCc1ccc(Oc2cc(C(F)(F)F)cc(C(F)(F)F)c2)cc1)c1ncn(-c2cc(Cl)c(O)c(Cl)c2)n1 [62i, N-(4-(3,5-bis(trifluoromethyl)phenoxy)benzyl)-1-(3,5-dichloro-4-hydroxyphenyl)-1H-1,2,4-triazole-3-carboxamide]
4.81 µM	–	–	CN(C)c1cccc(Oc2ccc(CNC(=O)c3ncn(-c4cc(Cl)c(O)c(Cl)c4)n3)cc2)c1 [64i, 1-(3,5-dichloro-4-hydroxyphenyl)-N-(4-(3-(dimethylamino)phenoxy)benzyl)-1H-1,2,4-triazole-3-carboxamide]
–	–	19.6 µM	O=C(NCc1ccc(Oc2ccc(C(F)(F)F)cc2)cc1)c1nc(-c2cc(Cl)c(O)c(Cl)c2)no1 [198a, 3-(3,5-dichloro-4-hydroxyphenyl)-N-(4-(4-(trifluoromethyl)phenoxy)benzyl)-1,2,4-oxadiazole-5-carboxamide]
–	–	12.2 µM	CN(C)c1cccc(Oc2ccc(CNC(=O)c3nc(-c4cc(Cl)c(O)c(Cl)c4)no3)cc2)c1 [199a, 3-(3,5-dichloro-4-hydroxyphenyl)-N-(4-(3-(dimethylamino)phenoxy)benzyl)-1,2,4-oxadiazole-5-carboxamide]
–	–	13.2 µM	O=C(NCc1ccc(Oc2ccc(F)c(C(F)(F)F)c2)cc1)c1nc(-c2cc(Cl)c(O)c(Cl)c2)no1 [200a, 3-(3,5-Dichloro-4-hydroxyphenyl)-N-(4-(4-fluoro-3-(trifluoromethyl)phenoxy)benzyl)-1,2,4-oxadiazole-5-carboxamide]
–	–	17.9 µM	O=C(NCc1ccc(Oc2cc(F)cc(Br)c2)cc1)c1nc(-c2cc(Cl)c(O)c(Cl)c2)no1 [201a, N-(4-(3-bromo-5-fluorophenoxy)benzyl)-3-(3,5-dichloro-4-hydroxyphenyl)-1,2,4-oxadiazole-5-carboxamide]
–	–	23.3 µM	O=C(NCc1ccc(Oc2ccc(Cl)c(C(F)(F)F)c2)cc1)c1nc(-c2cc(Cl)c(O)c(Cl)c2)no1 [202a, N-(4-(4-chloro-3-(trifluoromethyl)phenoxy)benzyl)-3-(3,5-dichloro-4-hydroxyphenyl)-1,2,4-oxadiazole-5-carboxamide]
–	–	25.9 µM	O=C(c1nc(-c2cc(Br)c(O)c(Br)c2)no1)N1CCC(C(O)(c2ccccc2)c2ccccc2)CC1 [203a, (3-(3,5-dibromo-4-hydroxyphenyl)-1,2,4-oxadiazol-5-yl)(4-(hydroxydiphenylmethyl)piperidin-1-yl)methanone]
–	–	8.99 µM	O=C(c1nc(-c2cc(Cl)c(O)c(Cl)c2)no1)N1CCC(Cc2ccccc2)CC1 [204a, (4-benzylpiperidin-1-yl)(3-(3,5-dichloro-4-hydroxyphenyl)-1,2,4-oxadiazol-5-yl)methanone]
